Reference: patent US7988958B2, “Enterococcus and Streptococcus strains and bacteriocins” (The United States of America as represented by the …, priority 2005, dated 2011)

Tests used:
Assay in all cases: MIC of purified bacteriocins and antibiotic by Spot Test
Type in all cases: cell-based
Staphylococcus aureus = settings: S. aureus; 24 hours at 37° C., aerobic
Description: (§1) The minimal inhibiting concentrations (MICs) of bacteriocins 760 and 50-52 and Methicillin were determined by Spot Test. Various concentrations of purified bacteriocins (μg/ml) in a volume of 10 μl was added to cultures of Staphylococcus aureus, Staphylococcus epidermidis, Pseudomonas aeruginosa, and Helicobacter pylori. The cultures were incubated for about 24 hours at about 37° C. under aerobic conditions for all but Helicobacter pylori which was incubated under microaerobic conditions.

[1] = test system: Staphylococcus epidermidis; settings: S. epidermidis; 24 hours at 37° C., aerobic
Description: as §1

Pseudomonas aeruginosa = settings: P. aeruginosa; 24 hours at 37° C., aerobic
Description: as §1

Helicobacter pylori = settings: H. pylori; 24 hours at 37° C., microaerobic
Description: as §1

## COc1cccc(OC)c1C(=O)N[C@@H]1C(=O)N2[C@@H]1SC(C)(C)[C@@H]2C(=O)O [Methicillin, reference compound]
Staphylococcus aureus
  MIC of purified Bacteriocins and Antibiotic: 52.5 µg/mL
[1]
  MIC of purified Bacteriocins and Antibiotic: 64.8 µg/mL
Pseudomonas aeruginosa
  MIC of purified Bacteriocins and Antibiotic: 78.4 µg/mL
Helicobacter pylori
  MIC of purified Bacteriocins and Antibiotic: 93.8 µg/mL
